Experimental data as given in paper PMC7367925, “The EU-ToxRisk method documentation, data processing and chemical testing pipeline for the regulatory use of new approach methods” (Archives of Toxicology, 2020).
Where two headings read alike, the source gives them in different places.

Experiments:
[1] = target: T1, Aryl Hydrocarbon receptor (Rattus norvegicus, UniProt P41738); assay: DR CALUX / AhR CALUX (rat hepatoma H-4-II-E cells); type: cell-based; conditions: 24 h exposure, lowest effect level PC10, means from 3 assay runs
T1 construct: host or cells: rat hepatoma H-4-II-E (ATCC CRL-1548)
T1 sequence (P41738 10-853): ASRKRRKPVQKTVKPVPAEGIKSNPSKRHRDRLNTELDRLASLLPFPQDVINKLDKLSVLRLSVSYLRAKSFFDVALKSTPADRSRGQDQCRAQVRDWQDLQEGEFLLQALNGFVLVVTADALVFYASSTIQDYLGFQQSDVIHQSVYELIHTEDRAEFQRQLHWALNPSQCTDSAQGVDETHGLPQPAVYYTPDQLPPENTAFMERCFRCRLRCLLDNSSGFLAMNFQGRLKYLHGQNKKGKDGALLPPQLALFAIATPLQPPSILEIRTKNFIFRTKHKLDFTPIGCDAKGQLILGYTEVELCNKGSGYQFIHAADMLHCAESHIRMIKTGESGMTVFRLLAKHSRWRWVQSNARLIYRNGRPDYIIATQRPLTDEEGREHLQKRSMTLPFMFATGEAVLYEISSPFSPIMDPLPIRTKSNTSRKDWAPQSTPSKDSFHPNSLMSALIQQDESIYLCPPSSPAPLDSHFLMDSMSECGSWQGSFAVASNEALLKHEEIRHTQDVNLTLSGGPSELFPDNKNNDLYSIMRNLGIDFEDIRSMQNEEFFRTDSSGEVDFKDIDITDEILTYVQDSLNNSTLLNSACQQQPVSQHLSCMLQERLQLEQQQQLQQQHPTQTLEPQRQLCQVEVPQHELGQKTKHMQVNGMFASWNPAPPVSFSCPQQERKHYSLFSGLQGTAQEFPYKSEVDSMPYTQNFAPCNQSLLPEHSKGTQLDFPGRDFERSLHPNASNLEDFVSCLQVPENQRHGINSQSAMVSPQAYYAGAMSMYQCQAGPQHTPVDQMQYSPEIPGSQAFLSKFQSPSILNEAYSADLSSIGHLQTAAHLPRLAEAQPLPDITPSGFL

[2] = target: T2, Progesterone receptor (Homo sapiens, UniProt P06401); assay: PR-anti CALUX; type: cell-based; conditions: 24 h exposure, lowest effect level PC20, reference agonist at EC50, means from 3 assay runs
T2 construct: host or cells: U-2 OS
T2 sequence (P06401 1-933): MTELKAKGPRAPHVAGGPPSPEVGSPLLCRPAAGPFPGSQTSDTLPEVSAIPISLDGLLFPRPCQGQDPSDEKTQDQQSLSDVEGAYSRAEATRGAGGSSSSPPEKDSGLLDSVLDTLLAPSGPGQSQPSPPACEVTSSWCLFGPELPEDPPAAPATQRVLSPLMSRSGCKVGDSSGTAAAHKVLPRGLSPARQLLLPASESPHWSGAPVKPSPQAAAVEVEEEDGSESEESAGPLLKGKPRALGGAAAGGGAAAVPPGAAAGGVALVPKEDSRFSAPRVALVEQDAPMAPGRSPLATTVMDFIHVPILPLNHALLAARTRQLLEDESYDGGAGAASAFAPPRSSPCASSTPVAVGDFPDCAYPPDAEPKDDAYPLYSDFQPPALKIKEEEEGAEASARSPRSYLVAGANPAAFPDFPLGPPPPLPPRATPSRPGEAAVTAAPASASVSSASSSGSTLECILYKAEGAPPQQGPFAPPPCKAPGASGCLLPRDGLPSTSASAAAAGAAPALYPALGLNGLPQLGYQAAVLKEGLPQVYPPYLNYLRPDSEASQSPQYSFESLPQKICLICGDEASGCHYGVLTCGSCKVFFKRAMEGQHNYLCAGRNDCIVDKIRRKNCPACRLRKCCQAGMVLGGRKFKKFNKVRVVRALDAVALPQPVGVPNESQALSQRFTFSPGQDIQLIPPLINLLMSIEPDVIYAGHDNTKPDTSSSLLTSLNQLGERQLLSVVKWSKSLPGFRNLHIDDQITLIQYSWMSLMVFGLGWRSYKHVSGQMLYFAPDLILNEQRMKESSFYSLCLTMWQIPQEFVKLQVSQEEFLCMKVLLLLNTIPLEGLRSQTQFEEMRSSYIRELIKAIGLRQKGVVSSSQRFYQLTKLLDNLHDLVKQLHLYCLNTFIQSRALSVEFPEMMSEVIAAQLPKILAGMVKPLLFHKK
Description: (§1) After 24 h, exposure medium was prepared. […] All samples were tested in triplicates. […] Fig. SM_4. […] Fig. SM_4.
(§2) Supplementary Material SM_4
(§3) Overview of CALUX assays.
(§4) This is defined as the concentration of test compound […]
(§5) for an antagonist assay is a PC20.
(§6) PC = positive control. FI = fold induction. PC10: concentration where test compound causes an activation equal to 10% of the maximum effect (positive control). PC20: concentration where test compound causes […]
(§7) FI=1.5: concentration where test
(§8) (A) exemplary graph of concentration- […]
(§9) receptor antagonism assay with PC20 as lowest-effect-level. (C) exemplary graph for assay with 1.5 fold inductionas lowest effect level. 9

[3] = system: Nrf2 (Oxidative stress); assay: Nrf2 CALUX; type: cell-based, human; conditions: 24 h exposure, lowest effect level FI=1.5, means from 3 assay runs
Description: as §1, §2, §3, §4, §5, §6, §7, §8, §9

[4] = target: T3, Pregnane X receptor (Homo sapiens, UniProt O75469); assay: PXR CALUX; type: cell-based; conditions: 24 h exposure, lowest effect level PC10, means from 3 assay runs
T3 construct: host or cells: U-2 OS
T3 sequence (O75469 1-434): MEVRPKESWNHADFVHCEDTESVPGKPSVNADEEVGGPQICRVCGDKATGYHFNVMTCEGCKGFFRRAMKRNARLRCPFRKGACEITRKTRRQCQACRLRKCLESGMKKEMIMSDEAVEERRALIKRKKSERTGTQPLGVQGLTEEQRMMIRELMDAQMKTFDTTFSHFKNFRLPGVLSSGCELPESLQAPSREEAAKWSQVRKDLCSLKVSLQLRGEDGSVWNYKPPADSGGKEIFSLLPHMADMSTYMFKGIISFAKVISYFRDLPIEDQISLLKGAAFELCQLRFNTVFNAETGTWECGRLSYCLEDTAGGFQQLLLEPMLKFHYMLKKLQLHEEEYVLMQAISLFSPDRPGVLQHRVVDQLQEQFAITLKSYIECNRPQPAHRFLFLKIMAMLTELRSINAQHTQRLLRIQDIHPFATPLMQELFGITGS
Description: as §1, §2, §3, §4, §5, §6, §7, §8, §9

[5] = system: U-2 OS cells; assay: Cytotox CALUX; conditions: 24 h exposure, lowest effect level PC20, means from 3 assay runs
[6] = system: U-2 OS reporter cell lines battery; assay: CALUX reporter gene assay battery as a whole; conditions: all CALUX assays, 13 concentrations, 24 h exposure
[7] = pooled test systems of the NAM panel (all test methods)
[8] = parameters: method as in Hardman JG 2001; conditions: known Cmax in man; ref Hardman JG 2001; cited from earlier work
[9] = human, plasma; cited from earlier work
[10] = system: U-2 OS cells; conditions: human
[11] = target: T4, Androgen receptor (Homo sapiens, UniProt P10275); type: cell-based; conditions: 24 h exposure, lowest effect level PC20, reference agonist at EC50, means from 3 assay runs
T4 construct: host or cells: U-2 OS
T4 sequence (P10275 1-920): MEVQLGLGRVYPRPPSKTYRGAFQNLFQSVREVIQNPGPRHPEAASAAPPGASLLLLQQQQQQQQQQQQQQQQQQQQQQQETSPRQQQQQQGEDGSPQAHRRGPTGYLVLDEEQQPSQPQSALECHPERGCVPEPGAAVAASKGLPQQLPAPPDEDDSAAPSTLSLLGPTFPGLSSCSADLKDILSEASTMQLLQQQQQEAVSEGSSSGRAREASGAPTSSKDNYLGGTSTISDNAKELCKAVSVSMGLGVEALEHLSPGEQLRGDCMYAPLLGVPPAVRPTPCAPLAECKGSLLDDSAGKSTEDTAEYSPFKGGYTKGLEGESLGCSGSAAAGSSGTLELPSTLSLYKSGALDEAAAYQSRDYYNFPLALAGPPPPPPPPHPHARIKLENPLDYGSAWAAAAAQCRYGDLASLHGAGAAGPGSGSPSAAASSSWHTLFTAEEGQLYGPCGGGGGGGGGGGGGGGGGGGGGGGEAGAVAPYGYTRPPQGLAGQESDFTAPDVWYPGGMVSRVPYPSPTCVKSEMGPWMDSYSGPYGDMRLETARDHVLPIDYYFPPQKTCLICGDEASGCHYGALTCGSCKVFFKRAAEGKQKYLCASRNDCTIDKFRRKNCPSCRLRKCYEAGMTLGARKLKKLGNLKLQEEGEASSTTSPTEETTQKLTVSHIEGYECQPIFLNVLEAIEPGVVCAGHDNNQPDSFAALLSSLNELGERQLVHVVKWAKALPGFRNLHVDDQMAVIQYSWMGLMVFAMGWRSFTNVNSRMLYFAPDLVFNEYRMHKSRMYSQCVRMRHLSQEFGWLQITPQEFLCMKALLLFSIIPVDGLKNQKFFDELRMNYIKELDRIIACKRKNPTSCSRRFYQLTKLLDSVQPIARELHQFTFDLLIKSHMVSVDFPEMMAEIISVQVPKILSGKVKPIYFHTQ
Description: as §1, §2, §3, §4, §5, §6, §7, §8, §9

[12] = target: T5, Thyroid hormone receptor beta (Homo sapiens, UniProt P10828); assay: TRb-anti CALUX; type: cell-based; conditions: 24 h exposure, lowest effect level PC20, reference agonist at EC50, means from 3 assay runs
T5 construct: host or cells: U-2 OS
T5 sequence (P10828 1-461): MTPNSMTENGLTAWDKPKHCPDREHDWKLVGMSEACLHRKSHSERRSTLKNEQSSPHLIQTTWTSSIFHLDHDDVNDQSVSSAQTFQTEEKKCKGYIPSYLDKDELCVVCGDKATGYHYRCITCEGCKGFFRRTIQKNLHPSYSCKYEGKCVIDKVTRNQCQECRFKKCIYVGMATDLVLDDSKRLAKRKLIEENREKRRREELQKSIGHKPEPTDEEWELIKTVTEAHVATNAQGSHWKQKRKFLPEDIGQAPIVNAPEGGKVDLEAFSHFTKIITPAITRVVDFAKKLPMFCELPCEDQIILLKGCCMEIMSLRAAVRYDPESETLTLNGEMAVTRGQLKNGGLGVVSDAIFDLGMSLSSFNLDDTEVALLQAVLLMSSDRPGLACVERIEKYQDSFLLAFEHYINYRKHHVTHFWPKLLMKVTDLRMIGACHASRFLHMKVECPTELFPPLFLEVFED
Description: as §1
Cell line Endpoint effect Reference compound […]
Cytotox CALUX Cytoxicity PC20 tributyltinacetate
as §2, §3, §4, §5, §6, §7, §8, §9

[13] = system: Transcription of p21 inhibitor of cell cycle progression; assay: p21 CALUX; type: cell-based, human; conditions: 24 h exposure, lowest effect level PC10, means from 3 assay runs
Description: as §1, §2, §3, §4, §5, §6, §7, §8, §9

[14] = system: p53-dependent pathway activation / genotoxicity; type: cell-based, human; conditions: for PoD p53: 24 h exposure, lowest effect level FI=1.5, means from 3 assay runs
Description: as §1, §2, §3, §4, §5, §6, §7, §8, §9

Structure (SMILES)	PoD PR - anta [2]	PoD PXR - ago [4]	PoD cytotoxicity [5]	response profile over the CALUX battery (in words) [6]	PoD p53 [14]	other results
CC(C)(C)C(O)(CCc1ccc(Cl)cc1)Cn1cncn1 (stereo not shown) [Tebuconazole]	5.6 -log(M)	5.8 -log(M)	4.3 -log(M)			PoD AhR - ago [1]: 5.1 -log(M); PoD Nrf2 [3]: 4.2 -log(M)
Cc1noc(NS(=O)(=O)c2ccc(N)cc2)c1C [Sulfisoxazole]				no effect		viability [7]: 100%; Cmax [8]: 464 µM
CC(=O)Nc1ccc(O)cc1 [Paracetamol]				no effect		protein binding [9]: 15%
CC(=O)O[C@H]1C(=O)[C@@]2(C)[C@H]([C@H](OC(=O)c3ccccc3)[C@]3(O)C[C@H](OC(=O)[C@H](O)[C@@H](NC(=O)c4ccccc4)c4ccccc4)C(C)=C1C3(C)C)[C@]1(OC(C)=O)CO[C@@H]1C[C@@H]2O [Taxol]	7.4 -log(M)				8.2 -log(M)	PoD cytotoxicity [10]: 5.6; cytotoxic concentration [10]: about 2.5 µM; PoD AR - anta [11]: 7.3 -log(M); PoD TRβ - anta [12]: 7.4 -log(M); PoD p21 [13]: 8.0 -log(M); concentration activating expression of p53 [14]: < 10 nM
CNC(=O)Oc1cccc2ccccc12 [Carbaryl]		4.0 -log(M)			3.8 -log(M)	
C=C(C)[C@H]1Cc2c(ccc3c2O[C@@H]2COc4cc(OC)c(OC)cc4[C@@H]2C3=O)O1 [Rotenone]			5.7 -log(M)		6.8 -log(M)	
